“Also recorded” adds a separate entry of the source.
What was measured:
[1] = system: intracellular Pb or Cd ions in 3T3 cells; test: Compound 12 on 3T3 cells with PbCl2 or CdCl2, then TPEN chelation; assay type: cell-based; conditions: 400 nM Compound 12, 1 μM ionomycin
Procedure: 500 nM, 250 nM and 125 nM of PbCl2 and at concentration range 100 uM, 50 μM and 25 μM of CdCl2.
After fluorescence acquisition, TPEN, a cell-permeant heavy metal chelator, was added to the samples.

[2] = Fluorescence titration of cadmium ions in cuvettes; assay type: binding; conditions: 50 mM MOPS pH 7, metal titrated up to 100 μM
Procedure: A dye stock (709 μM) solution of Compound 10 was prepared in DMSO. Lead, cadmium and mercury solutions from 0-100 μM were prepared in disposable cuvettes by diluting a 100 μM metal stock solutions to a final volume of 2 mL with 50 mM MOPS (pH7). The 100 μM metal stocks were also in 50 mM MOPS (pH7). For the cadmium titration, dye stock was added to give a final concentration of 0.35 μM. For the lead and mercury titrations, dye stock was added to give a final concentration of 1.42 μM. Samples were excited at 492 nm and fluorescence was recorded at 517 nm. […] See, FIG. 2.
The experiment was performed as described above except that the exact dye concentrations were unknown. Sample was dissolved in DMSO and diluted 2× in nano-pure H2O before running. Ex./Em. 549/577 nm. […] See, FIG. 1.
The experiment was performed as described above for cadmium ion detection except that the exact dye concentrations were unknown. Ex./Em. 348/397/481 nm (ratiometric).

**Q.** Which “Change of Compound 12 fluorescence after addition of the chelator” value [1] does the source give for c1ccc(CN(CCN(Cc2ccccn2)Cc2ccccn2)Cc2ccccn2)nc1 [TPEN, tetrakis-(2-pyridylmethyl)ethylenediamine] here?
**A.** drop of fluorescence after TPEN addition; also recorded: drop in fluorescence from the viable cells

**Q.** With O=C(O)COc1ccccc1OCCOc1cc(-c2cc3ccc(C(=O)O)cc3[nH]2)ccc1N(CC(=O)O)CC(=O)O [Compound 18] as the molecule, how does the Kd [2] read?
**A.** 1200 nM

Reference: patent publication US8680320B2, “Heavy metal binding compounds and their method of use” (Life Technologies Corporation, priority 2006, dated 2014)
